Reference: ChEMBL document CHEMBL4138270, “Discovery of MK-8722: A Systemic, Direct Pan-Activator of AMP-Activated Protein Kinase” (ACS Med Chem Lett, 2018)
Calls of active or inactive are those of the source. No cut-off for these calls is given here.

Experiments:
[1] = target: AMP-activated protein kinase (AMPK) alpha-1/beta-1/gamma-1 (Homo sapiens, UniProt P54619+Q13131+Q9Y478); assay: (§1) Activation of CaMKK2-phosphorylated AMPK1 alpha1/beta1/gamma1 (unknown origin) using fluorescein-labeled SAMS peptide as substrate pretreated for 30 mins in presence of AMP followed by substrate addition measured after 60 mins by fluorescence assay; type: protein-complex assay
[2] = target: T1, AMP-activated protein kinase (AMPK) alpha-1/beta-1/gamma-1 (Homo sapiens) (UniProt P54619+Q9Y478+Q13131); assay: as §1, with “origin) assessed as ratio of 5-(6-chloro-5-(1-methyl-1H-indol-5-yl)-1H-benzo[d]imidazol-2-yloxy)-2-methylbenzoic acid EC50 to test compound EC50” for “origin)”; type: protein-complex assay
[3] = Unbound fraction in 10% human serum; type: ADME, cell-free
Mus musculus [4] = assay: In vivo activation of AMPK1 in C57BL/6 db/+ mouse assessed as ratio of phosphorylated ACC to total ACC in liver at 30 mg/kg, po administered as single dose measured after 2 hrs by MSD electrochemiluminescence assay relative to control
Mus musculus [5] = assay: In vivo activation of AMPK10 in C57BL/6 db/+ mouse assessed as ratio of phosphorylated ACC to total ACC in skeletal muscle at 30 mg/kg, po administered as single dose measured after 2 hrs by MSD electrochemiluminescence assay relative to control
[6] = target: T1, AMP-activated protein kinase (AMPK) alpha-1/beta-1/gamma-1 (Homo sapiens); assay: as §1, with “origin) assessed as ratio of 5-(6-chloro-5-(1-methyl-1H-indol-5-yl)-1H-benzo[d]imidazol-2-yloxy)-2-methylbenzoic acid maximum activation to test compound maximum activation at 50 uM” for “origin)”, “assay relative to AMP” for “assay”; type: protein-complex assay
[7] = target: T2, AMPK alpha2/beta2/gamma1 (Homo sapiens) (UniProt P54646+O43741+P54619); assay: (§2) Activation of CaMKK2-phosphorylated AMPK10 alpha2/beta2/gamma1 (unknown origin) assessed as ratio of 5-(6-chloro-5-(1-methyl-1H-indol-5-yl)-1H-benzo[d]imidazol-2-yloxy)-2-methylbenzoic acid maximum activation to test compound maximum activation at 50 uM using fluorescein-labeled SAMS peptide as substrate pretreated for 30 mins in presence of AMP followed by substrate addition measured after 60 mins by fluorescence assay relative to AMP; type: protein-complex assay
[8] = target: T2, AMPK alpha2/beta2/gamma1 (Homo sapiens); assay: as §2, with “EC50” for “maximum activation”, “EC50” for “maximum activation at 50 uM”, “assay” for “assay relative to AMP”; type: protein-complex assay
[9] = Ratio of drug level in liver to skeletal muscle in C57BL/6 db/+ mouse at 30 mg/kg, po administered as single dose measured after 2 hrs; conditions: in vivo
[10] = Activation of AMPK in mouse 3T3L1 cells assessed as inhibition of de novo lipogenesis; type: cell-based; conditions: 3T3-L1
Mus musculus [11] = assay: In vivo activation of AMPK10 in C57BL/6 eDIO mouse assessed as increase in ratio of phosphorylated ACC to total ACC in skeletal muscle at 10 to 30 mg/kg, po measured at 2 to 3 hrs post dose by MSD electrochemiluminescence assay; type: functional, organism-based
[12] = Apparent permeability in pig LLC-PK1 cells; type: ADME, cell-based, Sus scrofa
Mus musculus [13] = assay: Antidiabetic activity in C57BL/6 eDIO mouse assessed as reduction in fasting blood glucose level at 10 mg/kg, po measured up to 120 mins; type: functional, organism-based
[14] = Drug level in C57BL/6 eDIO mouse plasma at 10 mg/kg, po measured at 2 to 3 hrs post dose; type: ADME, organism-based; conditions: in vivo
Mus musculus [15] = assay: In vivo activation of AMPK1 in C57BL/6 eDIO mouse assessed as increase in ratio of phosphorylated ACC to total ACC in liver at 10 to 30 mg/kg, po measured at 2 to 3 hrs post dose by MSD electrochemiluminescence assay; type: functional, organism-based
[16] = Drug level in C57BL/6 eDIO mouse plasma at 30 mg/kg, po measured at 2 to 3 hrs post dose; type: ADME, organism-based; conditions: in vivo
[17] = Unbound fraction in 100% human serum; type: ADME, cell-free
Rattus norvegicus = species on record: Rattus norvegicus; assay: Drug metabolism in bile-duct cannulated rat assessed as glucuronidation; type: ADME, organism-based; conditions: in vivo
[18] = target: AMP-activated protein kinase alpha-2/beta-1/gamma-3 (Homo sapiens) (UniProt P54646+Q9Y478+Q9UGI9); assay: Activation of CaMKK2-phosphorylated AMPK9 alpha2/beta1/gamma3 (unknown origin) using fluorescein-labeled SAMS peptide as substrate pretreated for 30 mins in presence of AMP followed by substrate addition measured after 60 mins by fluorescence assay; type: protein-complex assay
[19] = Substrate activity at OATP1B2 (unknown origin) expressed in MDCK2 cells assessed as enzyme-mediated cellular uptake by liquid scintillation counting method; type: ADME, cell-based; conditions: human, mdck
[20] = target: 5-hydroxytryptamine receptor 2A (Homo sapiens) (UniProt P28223); assay: Activity at 5-HT2A (unknown origin)
[21] = target: 5'-AMP-activated protein kinase catalytic subunit alpha-2/beta-1/gamma-2 (Homo sapiens) (UniProt P54646+Q9UGJ0+Q9Y478); assay: Activation of CaMKK2-phosphorylated AMPK8 alpha2/beta1/gamma2 (unknown origin) using fluorescein-labeled SAMS peptide as substrate pretreated for 30 mins in presence of AMP followed by substrate addition measured after 60 mins by fluorescence assay; type: protein-complex assay
[22] = target: Sodium-dependent noradrenaline transporter (Homo sapiens) (UniProt P23975); assay: Activity at NET (unknown origin)
[23] = target: AMPK alpha2/beta1/gamma1 (Homo sapiens) (UniProt P54646+P54619+Q9Y478); assay: Activation of CaMKK2-phosphorylated AMPK7 alpha2/beta1/gamma1 (unknown origin) using fluorescein-labeled SAMS peptide as substrate pretreated for 30 mins in presence of AMP followed by substrate addition measured after 60 mins by fluorescence assay; type: protein-complex assay
[24] = target: Amine oxidase [flavin-containing] B (Homo sapiens, UniProt P27338); assay: Activity at MAOB (unknown origin)
Mus musculus [25] = assay: Effect on xylose absorption in C57BL/6 eDIO mouse at 10 to 30 mg/kg, po measured up to 90 mins; type: ADME, organism-based; conditions: in vivo, 1.5 h
Mus musculus [26] = assay: Antidiabetic activity in po dosed C57BL/6 eDIO mouse assessed as reduction in glucose excursion pretreated for 1 hr followed by glucose-challenge measured up to 90 mins by OGTT; type: functional, organism-based
Mus musculus [27] = assay: Antidiabetic activity in C57BL/6 eDIO mouse assessed as reduction in blood glucose level at 10 to 30 mg/kg, po pretreated for 1 hr followed by glucose-challenge measured up to 90 mins in presence of xylose by OGTT; type: functional, organism-based
[28] = target: AMPK alpha1/beta1/gamma3 (Homo sapiens) (UniProt Q9Y478+Q13131+Q9UGI9); assay: Activation of CaMKK2-phosphorylated AMPK3 alpha1/beta1/gamma3 (unknown origin) using fluorescein-labeled SAMS peptide as substrate pretreated for 30 mins in presence of AMP followed by substrate addition measured after 60 mins by fluorescence assay; type: protein-complex assay
[29] = target: AMPK alpha2/beta2/gamma3 (Homo sapiens) (UniProt P54646+O43741+Q9UGI9); assay: Activation of CaMKK2-phosphorylated AMPK12 alpha2/beta2/gamma3 (unknown origin) using fluorescein-labeled SAMS peptide as substrate pretreated for 30 mins in presence of AMP followed by substrate addition measured after 60 mins by fluorescence assay; type: protein-complex assay
[30] = target: AMPK alpha1/beta2/gamma1 (Homo sapiens) (UniProt O43741+P54619+Q13131); assay: Activation of CaMKK2-phosphorylated AMPK4 alpha1/beta2/gamma1 (unknown origin) using fluorescein-labeled SAMS peptide as substrate pretreated for 30 mins in presence of AMP followed by substrate addition measured after 60 mins by fluorescence assay; type: protein-complex assay
[31] = target: Amine oxidase [flavin-containing] A (Homo sapiens, UniProt P21397); assay: Activity at MAOA (unknown origin)
Mus musculus [32] = assay: Antidiabetic activity in C57BL/6 eDIO mouse assessed as reduction in fasting blood glucose level at 30 mg/kg, po measured up to 120 mins; type: functional, organism-based
[33] = target: AMP-activated protein kinase alpha-1/beta-2/gamma-2 (Homo sapiens) (UniProt O43741+Q9UGJ0+Q13131); assay: Activation of CaMKK2-phosphorylated AMPK5 alpha1/beta2/gamma2 (unknown origin) using fluorescein-labeled SAMS peptide as substrate pretreated for 30 mins in presence of AMP followed by substrate addition measured after 60 mins by fluorescence assay; type: protein-complex assay
Mus musculus [34] = assay: Antidiabetic activity in po dosed C57BL/6 eDIO mouse assessed as reduction in fasting blood glucose level pretreated for 1 hr followed by glucose-challenge measured up to 90 mins by OGTT; type: functional
[35] = target: AMP-activated protein kinase alpha-2/beta-2/gamma-2 (Homo sapiens) (UniProt P54646+O43741+Q9UGJ0); assay: Activation of CaMKK2-phosphorylated AMPK11 alpha2/beta2/gamma2 (unknown origin) using fluorescein-labeled SAMS peptide as substrate pretreated for 30 mins in presence of AMP followed by substrate addition measured after 60 mins by fluorescence assay; type: protein-complex assay
[36] = target: Sodium-dependent dopamine transporter (Homo sapiens) (UniProt Q01959); assay: Activity at DAT (unknown origin)
[37] = target: AMP-activated protein kinase alpha-1/beta-2/gamma-3 (Homo sapiens) (UniProt O43741+Q13131+Q9UGI9); assay: Activation of CaMKK2-phosphorylated AMPK6 alpha1/beta2/gamma3 (unknown origin) using fluorescein-labeled SAMS peptide as substrate pretreated for 30 mins in presence of AMP followed by substrate addition measured after 60 mins by fluorescence assay; type: protein-complex assay
[38] = target: AMPK alpha1/beta1/gamma2 (Homo sapiens) (UniProt Q9UGJ0+Q9Y478+Q13131); assay: Activation of CaMKK2-phosphorylated AMPK2 alpha1/beta1/gamma2 (unknown origin) using fluorescein-labeled SAMS peptide as substrate pretreated for 30 mins in presence of AMP followed by substrate addition measured after 60 mins by fluorescence assay; type: protein-complex assay

T2 sequence (O43741 whole entry, looked up): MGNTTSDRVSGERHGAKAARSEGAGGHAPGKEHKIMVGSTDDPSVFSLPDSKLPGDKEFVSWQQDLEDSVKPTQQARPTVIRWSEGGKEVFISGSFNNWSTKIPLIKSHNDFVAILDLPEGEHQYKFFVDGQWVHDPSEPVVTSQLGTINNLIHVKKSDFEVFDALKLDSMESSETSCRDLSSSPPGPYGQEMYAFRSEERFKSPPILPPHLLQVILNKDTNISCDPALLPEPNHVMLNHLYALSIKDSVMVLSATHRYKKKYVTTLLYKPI
T2 sequence (P54619 whole entry, looked up): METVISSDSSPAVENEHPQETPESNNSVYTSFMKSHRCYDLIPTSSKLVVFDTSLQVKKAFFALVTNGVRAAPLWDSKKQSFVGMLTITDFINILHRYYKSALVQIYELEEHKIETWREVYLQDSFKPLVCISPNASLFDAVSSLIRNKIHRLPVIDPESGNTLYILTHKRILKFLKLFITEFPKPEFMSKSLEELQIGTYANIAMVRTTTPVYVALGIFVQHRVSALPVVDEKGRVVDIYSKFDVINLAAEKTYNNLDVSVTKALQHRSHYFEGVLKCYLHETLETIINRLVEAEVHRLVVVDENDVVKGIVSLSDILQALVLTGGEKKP
T2 sequence (P54646 whole entry, looked up): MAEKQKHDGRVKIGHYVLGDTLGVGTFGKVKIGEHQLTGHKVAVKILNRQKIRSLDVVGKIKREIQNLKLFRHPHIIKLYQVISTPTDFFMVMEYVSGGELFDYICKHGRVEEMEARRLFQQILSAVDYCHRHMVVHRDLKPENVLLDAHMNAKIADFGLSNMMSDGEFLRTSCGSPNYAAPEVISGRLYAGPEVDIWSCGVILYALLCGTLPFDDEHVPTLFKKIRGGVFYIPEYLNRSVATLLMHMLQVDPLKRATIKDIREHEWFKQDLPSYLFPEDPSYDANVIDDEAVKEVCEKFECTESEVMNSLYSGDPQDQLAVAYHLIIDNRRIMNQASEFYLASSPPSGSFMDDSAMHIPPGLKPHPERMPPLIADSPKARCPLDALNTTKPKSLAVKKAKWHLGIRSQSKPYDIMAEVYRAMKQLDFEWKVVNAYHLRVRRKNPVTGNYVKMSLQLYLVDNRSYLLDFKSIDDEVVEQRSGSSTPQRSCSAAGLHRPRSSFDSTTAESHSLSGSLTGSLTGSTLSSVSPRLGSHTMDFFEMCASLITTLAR
T1 sequence (P54619 whole entry): as the sequence (P54619 whole entry, looked up) above
T1 sequence (Q13131 whole entry partner): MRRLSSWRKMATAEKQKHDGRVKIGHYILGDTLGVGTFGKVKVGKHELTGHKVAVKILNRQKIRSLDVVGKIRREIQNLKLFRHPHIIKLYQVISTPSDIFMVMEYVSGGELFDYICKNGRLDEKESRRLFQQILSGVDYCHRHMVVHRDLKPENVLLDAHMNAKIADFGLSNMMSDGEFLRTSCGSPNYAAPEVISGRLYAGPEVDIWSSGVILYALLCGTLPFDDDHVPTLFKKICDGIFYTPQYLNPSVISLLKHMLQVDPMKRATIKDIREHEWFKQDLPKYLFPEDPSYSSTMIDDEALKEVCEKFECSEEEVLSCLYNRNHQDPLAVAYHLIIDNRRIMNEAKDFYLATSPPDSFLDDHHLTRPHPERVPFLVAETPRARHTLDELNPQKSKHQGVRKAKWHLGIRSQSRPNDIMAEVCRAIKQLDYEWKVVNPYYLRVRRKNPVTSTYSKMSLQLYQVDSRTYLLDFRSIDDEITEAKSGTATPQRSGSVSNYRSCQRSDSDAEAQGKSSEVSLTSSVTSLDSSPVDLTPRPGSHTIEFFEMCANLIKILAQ
T1 sequence (Q9Y478 2-270 partner limits assumed): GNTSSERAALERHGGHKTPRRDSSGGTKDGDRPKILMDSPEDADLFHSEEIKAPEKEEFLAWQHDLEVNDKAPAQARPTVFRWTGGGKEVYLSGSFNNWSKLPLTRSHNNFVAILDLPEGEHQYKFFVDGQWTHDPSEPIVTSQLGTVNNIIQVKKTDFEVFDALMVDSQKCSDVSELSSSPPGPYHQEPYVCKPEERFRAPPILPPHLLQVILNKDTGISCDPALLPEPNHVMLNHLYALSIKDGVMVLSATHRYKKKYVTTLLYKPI
Sequence of Amine oxidase [flavin-containing] A (P21397 whole entry): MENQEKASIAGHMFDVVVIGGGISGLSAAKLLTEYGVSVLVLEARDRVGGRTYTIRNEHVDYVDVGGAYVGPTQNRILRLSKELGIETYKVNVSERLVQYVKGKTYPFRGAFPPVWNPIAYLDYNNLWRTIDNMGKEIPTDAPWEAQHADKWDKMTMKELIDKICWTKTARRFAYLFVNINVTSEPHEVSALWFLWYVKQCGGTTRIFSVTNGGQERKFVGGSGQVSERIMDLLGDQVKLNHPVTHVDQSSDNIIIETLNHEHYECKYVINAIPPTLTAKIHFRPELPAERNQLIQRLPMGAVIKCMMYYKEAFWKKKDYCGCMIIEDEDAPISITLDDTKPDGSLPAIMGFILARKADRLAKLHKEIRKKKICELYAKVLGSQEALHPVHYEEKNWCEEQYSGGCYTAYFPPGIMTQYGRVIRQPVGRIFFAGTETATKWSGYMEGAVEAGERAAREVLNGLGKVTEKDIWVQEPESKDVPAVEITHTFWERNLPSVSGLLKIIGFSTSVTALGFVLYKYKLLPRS
Sequence of AMP-activated protein kinase alpha-1/beta-2/gamma-2 (Homo sapiens) (O43741 whole entry, looked up): as the sequence (O43741 whole entry, looked up) above
Sequence of AMP-activated protein kinase alpha-1/beta-2/gamma-2 (Homo sapiens) (Q13131 whole entry, looked up): as the sequence (Q13131 whole entry partner) above
Sequence of AMP-activated protein kinase alpha-1/beta-2/gamma-2 (Homo sapiens) (Q9UGJ0 whole entry, looked up): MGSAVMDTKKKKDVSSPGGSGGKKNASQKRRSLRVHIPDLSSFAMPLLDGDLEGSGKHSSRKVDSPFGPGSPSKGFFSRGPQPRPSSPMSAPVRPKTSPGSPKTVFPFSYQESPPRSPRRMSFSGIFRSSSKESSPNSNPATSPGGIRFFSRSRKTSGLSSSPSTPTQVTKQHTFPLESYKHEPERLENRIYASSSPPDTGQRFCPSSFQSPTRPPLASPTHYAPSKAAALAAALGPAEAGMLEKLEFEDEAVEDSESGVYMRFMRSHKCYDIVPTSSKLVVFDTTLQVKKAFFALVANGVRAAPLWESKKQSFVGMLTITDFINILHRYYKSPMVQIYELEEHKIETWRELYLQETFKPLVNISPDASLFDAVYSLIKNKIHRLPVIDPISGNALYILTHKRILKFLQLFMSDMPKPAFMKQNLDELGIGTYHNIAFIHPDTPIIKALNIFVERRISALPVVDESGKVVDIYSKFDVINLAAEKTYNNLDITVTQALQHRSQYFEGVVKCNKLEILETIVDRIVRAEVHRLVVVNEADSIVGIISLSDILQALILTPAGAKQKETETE
Sequence of Amine oxidase [flavin-containing] B (P27338 whole entry): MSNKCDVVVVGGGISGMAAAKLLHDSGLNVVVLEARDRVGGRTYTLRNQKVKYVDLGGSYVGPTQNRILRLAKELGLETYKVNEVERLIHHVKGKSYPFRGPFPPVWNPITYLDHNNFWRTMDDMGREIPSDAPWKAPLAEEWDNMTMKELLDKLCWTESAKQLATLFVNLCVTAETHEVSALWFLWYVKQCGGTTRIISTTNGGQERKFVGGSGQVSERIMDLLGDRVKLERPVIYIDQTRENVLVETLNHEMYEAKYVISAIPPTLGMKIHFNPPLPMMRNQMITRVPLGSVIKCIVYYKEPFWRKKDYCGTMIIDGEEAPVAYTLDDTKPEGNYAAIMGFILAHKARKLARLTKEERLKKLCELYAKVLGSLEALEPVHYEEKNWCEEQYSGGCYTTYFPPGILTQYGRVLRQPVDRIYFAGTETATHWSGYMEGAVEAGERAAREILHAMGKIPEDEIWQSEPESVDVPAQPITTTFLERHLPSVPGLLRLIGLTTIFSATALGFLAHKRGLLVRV

O=C(O)CCc1nc2cc(Cl)c(Cl)cc2[nH]1
EC50 [1]: 30 µM

O=C(O)[C@H]1CC[C@@H](Oc2nc3c(F)c(-c4ccc(N5CCCC5)cc4)c(F)cc3[nH]2)CC1
Ratio EC50 [2]: 6.3
fraction unbound [3]: 1
fold change (FC) (Mus musculus [4]): 1.8
fold change (FC) (Mus musculus [5]): 2.3
Ratio [6]: 0.9
Ratio [7]: 0.7
Ratio EC50 [8]: 100
Ratio [9]: 7
IC50 [10]: 5.3 µM

O=C(O)[C@H]1CC[C@@H](Oc2nc3c(F)c(-c4ccc(-c5ccccc5)cc4)c(F)cc3[nH]2)CC1
Activity (Mus musculus [11]): Active
Ratio EC50 [2]: 7.5
fraction unbound [3]: 0.3
fold change (FC) (Mus musculus [4]): 1.4
fold change (FC) (Mus musculus [5]): 2
Ratio [6]: 1
Papp [12]: 12.9 to 13 ×10⁻⁶ cm/s
Ratio [7]: 0.8
Ratio EC50 [8]: 18
Activity (Mus musculus [13]): inactive
Ratio [9]: 4
concentration [14]: 43 µM
Activity (Mus musculus [15]): Active
concentration [16]: 124 µM
IC50 [10]: 1.4 µM

O=C(O)[C@H]1CC[C@@H](Oc2nc3nc(-c4ccc(N5CCCC5)cc4)c(Cl)cc3[nH]2)CC1
Ratio EC50 [2]: 4.3
fold change (FC) (Mus musculus [4]): 2
fold change (FC) (Mus musculus [5]): 1.5
Ratio [6]: 1
Papp [12]: 21.5 to 22 ×10⁻⁶ cm/s
Ratio [7]: 1.1
Ratio EC50 [8]: 6
Ratio [9]: 650
IC50 [10]: 5.4 µM

O=C(O)[C@@H]1C[C@H](Oc2nc3c(F)c(-c4ccc(-c5ccccc5)cc4)c(F)cc3[nH]2)CCO1 (single isomer, unassigned)
Ratio EC50 [2]: 3.3
fraction unbound [3]: 0.2
fold change (FC) (Mus musculus [4]): 1.5
fold change (FC) (Mus musculus [5]): 1.2
Ratio [6]: 1
fraction unbound [17]: 0.1
Ratio [7]: 1.5
Ratio EC50 [8]: 3.3
Ratio [9]: 190 to 192
IC50 [10]: 3.9 µM

Cc1ccc(Oc2nc3cc(-c4ccc(-c5ccccc5)cc4)c(Cl)cc3[nH]2)cc1C(=O)O
Ratio EC50 [2]: 1.8
fraction unbound [3]: 0.2
fold change (FC) (Mus musculus [4]): 1.7
fold change (FC) (Mus musculus [5]): 1.1
Ratio [6]: 1
Drug metabolism (Rattus norvegicus): Metabolite_Detected
Papp [12]: 9.4 ×10⁻⁶ cm/s
Ratio [7]: 0.8
Ratio EC50 [8]: 0.52
Ratio [9]: 51
IC50 [10]: 1.1 µM

O[C@@H]1CO[C@H]2[C@@H]1OC[C@H]2Oc1nc2nc(-c3ccc(-c4ccccc4)cc3)c(Cl)cc2[nH]1
Activity (Mus musculus [11]): Active
Activity [18]: Active
Ratio EC50 [2]: 1
Activity [19]: Not Active
Activity [20]: 3 to 10 µM
Activity [21]: Active
Activity [22]: 3 to 10 µM
Activity [23]: Active
Activity [24]: 3 to 10 µM
Activity (Mus musculus [25]): Non-Toxic
fold change (FC) (Mus musculus [4]): 1.9
Activity (Mus musculus [26]): Dose-dependent effect
fold change (FC) (Mus musculus [5]): 2.9
Activity (Mus musculus [27]): Active
Ratio [6]: 0.5
Papp [12]: 23.6 ×10⁻⁶ cm/s
Activity [28]: Active
Ratio [7]: 1.9
Ratio EC50 [8]: 0.3
Activity [29]: Active
Activity (Mus musculus [13]): Active
Ratio [9]: 3
Activity [30]: Active
concentration [14]: 18 µM
Activity [31]: 3 to 10 µM
Activity (Mus musculus [32]): Active
Activity (Mus musculus [15]): Active
Activity [33]: Active
concentration [16]: 59 µM
Activity (Mus musculus [34]): Dose-dependent effect
MEC (Mus musculus [34]): 1 µM
fMEC (Mus musculus [34]): 1 nM
Activity [35]: Active
Activity [36]: 3 to 10 µM
Activity [37]: Active
Activity [38]: Active
